Measured values reported in ChEMBL document CHEMBL1921781, “Antibacterial and antitubercular activity of fosmidomycin, FR900098, and their lipophilic analogs” (2011).
Converted amounts (≈) assume the structure as drawn.

Assays:
Assay type in all cases: functional
Escherichia coli [1] = test: Antibacterial activity against Escherichia coli K-12 after overnight incubation by microbroth dilution method
Staphylococcus aureus [2] = test: Antibacterial activity against methicillin-resistant Staphylococcus aureus after overnight incubation by microbroth dilution method
[3] = system: Mycobacterium tuberculosis; test: Antitubercular activity against Mycobacterium tuberculosis H37Rv after 7 days by microbroth dilution method; conditions: 168 h
Bacillus anthracis = test: Antibacterial activity against Bacillus anthracis after overnight incubation by microbroth dilution method
Enterococcus faecalis = test: Antibacterial activity against Enterococcus faecalis after overnight incubation by microbroth dilution method
Staphylococcus aureus [4] = test: Antibacterial activity against methicillin-susceptible Staphylococcus aureus after overnight incubation by microbroth dilution method
Escherichia coli [5] = test: Antibacterial activity against Escherichia coli expressing TolC after overnight incubation by microbroth dilution method
Acinetobacter = test: Antibacterial activity against Acinetobacter after overnight incubation by microbroth dilution method

`CC(=O)N(O)CCCP(=O)([O-])O.[Na+]` showed an MIC (Escherichia coli [1]) of 200 µg/mL, an MIC (Staphylococcus aureus [2]) of 50 µg/mL and an MIC [3] of over 500 µg/mL. For the same compound, the MIC (Bacillus anthracis) was 50 µg/mL, the MIC (Enterococcus faecalis) was over 200 µg/mL and the MIC (Staphylococcus aureus [4]) was over 200 µg/mL. For the same compound, the MIC (Escherichia coli [5]) was 12.5 µg/mL and the MIC (Acinetobacter) was 50 µg/mL.

`CCOP(=O)(CCCN(O)C=O)OCC` was tested, and the MIC (Escherichia coli [1]) was over 200 µg/mL, the MIC (Staphylococcus aureus [2]) was over 200 µg/mL and the MIC [3] was 400 µg/mL (≈ 1670 µM). The MIC (Bacillus anthracis) was over 200 µg/mL, the MIC (Enterococcus faecalis) was over 200 µg/mL and the MIC (Staphylococcus aureus [4]) was over 200 µg/mL. It also gave an MIC (Escherichia coli [5]) of over 200 µg/mL and an MIC (Acinetobacter) of over 200 µg/mL.

For `CCOP(=O)(CCCN(O)C(C)=O)OCC`, the MIC (Escherichia coli [1]) was over 200 µg/mL, the MIC (Staphylococcus aureus [2]) was 200 µg/mL (≈ 790 µM) and the MIC [3] was 200 µg/mL (≈ 790 µM). The MIC (Bacillus anthracis) was 200 µg/mL (≈ 790 µM), the MIC (Enterococcus faecalis) was over 200 µg/mL and the MIC (Staphylococcus aureus [4]) was over 200 µg/mL. For the same compound, the MIC (Escherichia coli [5]) was over 200 µg/mL and the MIC (Acinetobacter) was over 200 µg/mL.

In the case of `CC(=O)N(O)CCCP(=O)(OC(C)C)OC(C)C`, the MIC (Escherichia coli [1]) is reported as over 200 µg/mL, the MIC (Staphylococcus aureus [2]) is reported as over 200 µg/mL and the MIC [3] is reported as 400 µg/mL (≈ 1420 µM). For the same compound, the MIC (Bacillus anthracis) was over 200 µg/mL, the MIC (Enterococcus faecalis) was over 200 µg/mL and the MIC (Staphylococcus aureus [4]) was over 200 µg/mL. It also gave an MIC (Escherichia coli [5]) of over 200 µg/mL and an MIC (Acinetobacter) of over 200 µg/mL.

Compound `CCCCCCOP(=O)(CCCN(O)C(C)=O)OCCCCCC` has an MIC [3] of 100 µg/mL (≈ 274 µM).

`CCOC(=O)OC(C)OP(=O)(CCCN(O)C(C)=O)OC(C)OC(=O)OCC` (stereo not drawn) gave an MIC (Escherichia coli [1]) of over 200 µg/mL, an MIC (Staphylococcus aureus [2]) of over 200 µg/mL and an MIC [3] of 400 µg/mL (≈ 932 µM). It also gave an MIC (Bacillus anthracis) of over 200 µg/mL, an MIC (Enterococcus faecalis) of over 200 µg/mL and an MIC (Staphylococcus aureus [4]) of over 200 µg/mL. The MIC (Escherichia coli [5]) was 200 µg/mL (≈ 466 µM) and the MIC (Acinetobacter) was over 200 µg/mL.

With `CC(=O)N(O)CCCP(=O)(OCC(=O)OC(C)(C)C)OCC(=O)OC(C)(C)C` the MIC (Escherichia coli [1]) was over 200 µg/mL, the MIC (Staphylococcus aureus [2]) was 25 µg/mL (≈ 58.8 µM) and the MIC [3] was 400 µg/mL (≈ 940 µM). It also gave an MIC (Bacillus anthracis) of over 200 µg/mL, an MIC (Enterococcus faecalis) of over 200 µg/mL and an MIC (Staphylococcus aureus [4]) of 100 µg/mL (≈ 235 µM). The MIC (Escherichia coli [5]) was over 200 µg/mL and the MIC (Acinetobacter) was over 200 µg/mL.

In the case of `CC(=O)N(O)CCCP(=O)(OC(C)OC(=O)OC(C)(C)C)OC(C)OC(=O)OC(C)(C)C` (stereo not drawn), the MIC (Escherichia coli [1]) is reported as over 200 µg/mL, the MIC (Staphylococcus aureus [2]) is reported as 50 µg/mL (≈ 103 µM) and the MIC [3] is reported as 400 µg/mL (≈ 824 µM). For the same compound, the MIC (Bacillus anthracis) was 200 µg/mL (≈ 412 µM), the MIC (Enterococcus faecalis) was over 200 µg/mL and the MIC (Staphylococcus aureus [4]) was 100 µg/mL (≈ 206 µM). For the same compound, the MIC (Escherichia coli [5]) was over 200 µg/mL and the MIC (Acinetobacter) was over 200 µg/mL.

With `CC(=O)N(O)CCCP(=O)(OCOC(=O)c1ccccc1)OCOC(=O)c1ccccc1` the MIC (Escherichia coli [1]) was over 200 µg/mL, the MIC (Staphylococcus aureus [2]) was over 200 µg/mL and the MIC [3] was 25 µg/mL (≈ 53.7 µM). For the same compound, the MIC (Bacillus anthracis) was 100 µg/mL (≈ 215 µM), the MIC (Enterococcus faecalis) was over 200 µg/mL and the MIC (Staphylococcus aureus [4]) was over 200 µg/mL. For the same compound, the MIC (Escherichia coli [5]) was 50 µg/mL (≈ 107 µM) and the MIC (Acinetobacter) was 200 µg/mL (≈ 430 µM).

In the case of `CC(=O)N(O)CCCP(=O)(OC(C)OC(=O)c1ccccc1)OC(C)OC(=O)c1ccccc1` (stereo not drawn), the MIC (Escherichia coli [1]) is reported as 50 µg/mL (≈ 101 µM), the MIC [3] is reported as 100 µg/mL (≈ 203 µM) and the MIC (Bacillus anthracis) is reported as 50 µg/mL (≈ 101 µM). The MIC (Enterococcus faecalis) was over 200 µg/mL, the MIC (Staphylococcus aureus [4]) was over 200 µg/mL and the MIC (Escherichia coli [5]) was 50 µg/mL (≈ 101 µM). For the same compound, the MIC (Acinetobacter) was 100 µg/mL (≈ 203 µM).

Work on `CC(=O)N(O)CCCP(=O)(OCOC(=O)C(C)(C)C)OCOC(=O)C(C)(C)C` yielded an MIC (Escherichia coli [1]) of over 200 µg/mL, an MIC (Staphylococcus aureus [2]) of 50 µg/mL (≈ 118 µM) and an MIC [3] of 50 µg/mL (≈ 118 µM). The MIC (Bacillus anthracis) was 200 µg/mL (≈ 470 µM), the MIC (Enterococcus faecalis) was over 200 µg/mL and the MIC (Staphylococcus aureus [4]) was 100 µg/mL (≈ 235 µM). It also gave an MIC (Escherichia coli [5]) of 100 µg/mL (≈ 235 µM) and an MIC (Acinetobacter) of over 200 µg/mL.

`O=CN(O)CCCP(=O)(O)O` [FOSMIDOMYCIN] showed an MIC (Escherichia coli [1]) of 12.5 µg/mL (≈ 68.3 µM), an MIC (Staphylococcus aureus [2]) of 200 µg/mL (≈ 1090 µM) and an MIC [3] of over 500 µg/mL. It also gave an MIC (Bacillus anthracis) of 0.78 µg/mL (≈ 4.26 µM), an MIC (Enterococcus faecalis) of over 200 µg/mL and an MIC (Staphylococcus aureus [4]) of over 200 µg/mL. For the same compound, the MIC (Escherichia coli [5]) was 6.25 µg/mL (≈ 34.1 µM) and the MIC (Acinetobacter) was 100 µg/mL (≈ 546 µM).
